Values of other authors, collected in patent US6543389B2, “Insecticidal pet collar” (Pfizer Inc., priority 2001, dated 2003).

Key:
ticks [1] = conditions: collars as currently marketed, extruded matrix containing about 9% by weight of amitraz
ticks [2] = conditions: as compared with fipronil
alpha-2 adrenoceptor = conditions: affected dogs, injected intramuscularly

Compound | duration of tick protection (ticks [1]) | effect on numbers of live feeding ticks, egg hatchability, and larval viability (ticks [2]) | reversing effects of amitraz toxicosis (alpha-2 adrenoceptor)
Cc1ccc(N=CN(C)C=Nc2ccc(C)cc2C)c(C)c1 [Amitraz, 1,5-di-(2,4-dimethylphenyl)-3-methyl-1,3,5-triazapenta-1,4-diene] | about four | significantly greater effect | –
CCC1(c2c[nH]cn2)Cc2ccccc2C1 [atipamezole, 4-(2-ethyl-2,3-dihydro-1H-inden-2-yl)-1H-imidazole] | – | – | effective in reversing effects of amitraz toxicosis
